Drawing on patent US8618151B2, “Inhibitors of HCV NS5A” (Presidio Pharmaceuticals, Inc., priority 2008, dated 2013), this text covers EC50 for 40 molecules.

Each structure is given as a SMILES string.

The experiment has as its system HCV genotype 1b replicon. In words: HCV replicon assay (1b_Huh-Luc/Neo-ET cell line, luciferase readout). It counts as cell-based. The conditions noted are these: Hepatitis C virus, Huh-7, 72 h, read-out: Inhibition of HCV genotype 1b. An outline of the steps: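 1b_Huh-Luc/Neo-ET Huh 7 cells carrying a bicistronic genotype 1b replicon; compounds added in triplicate the day after plating, 72 h incubation, then Bright-Glo luciferase read-out. Signal expressed as % of control; EC50 from curve fit, repeated several times.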
`COC(=O)N[C@H](C(=O)N1CCC[C@H]1c1ncc(-c2ccc3cc(-c4ccc(-c5cnc([C@@H]6CCCN6C(=O)[C@@H](NC(=O)OC)C6CCOCC6)[nH]5)cc4F)ncc3c2)[nH]1)C(C)C` [compound 151]: the EC50 was below 1 nM.

Consider `COC(=O)N[C@H](C(=O)N1CCC[C@H]1c1ncc(-c2ccc3cc(-c4ccc(-c5cnc([C@@H]6CCCN6C(=O)[C@H](NC(=O)OC)c6ccccc6)[nH]5)cc4F)ncc3c2)[nH]1)C(C)C` [compound 152], for which the EC50 is below 1 nM.

For the molecule `COC(=O)N[C@H](C(=O)N1CCC[C@H]1c1ncc(-c2ccc3cc(-c4ccc(-c5cnc([C@@H]6CCCN6C(=O)[C@H](NC(=O)OC6CCOCC6)c6ccccc6)[nH]5)cc4F)ncc3c2)[nH]1)C(C)C` [compound 153], the EC50 is below 1 nM.

`COC(=O)N[C@H](C(=O)N1CCC[C@H]1c1ncc(-c2ccc3cc(-c4ccc(-c5cnc([C@@H]6CCCN6C(=O)[C@H](NC(=O)OC6CCOCC6)c6ccccc6)[nH]5)c(F)c4)ncc3c2)[nH]1)C1CCOCC1` [compound 154]: the EC50 is below 1 nM.

With `COC(=O)N[C@H](C(=O)N1CCC[C@H]1c1ncc(-c2ccc3cc(-c4ccc(-c5cnc([C@@H]6CCCN6C(=O)[C@H](NC(=O)OC)c6ccccc6)[nH]5)c(F)c4)ncc3c2)[nH]1)C(C)C` [compound 155], the EC50 was below 1 nM.

Consider `COC(=O)N[C@H](C(=O)N1CCC[C@H]1c1ncc(-c2ccc(-c3cc4ccc(-c5cnc([C@@H]6CCCN6C(=O)[C@H](NC(=O)OC6CCOCC6)c6ccccc6)[nH]5)cc4cn3)cc2F)[nH]1)C(C)C` [compound 156], for which the EC50 was below 1 nM.

`COC(=O)N[C@H](C(=O)N1CCC[C@H]1c1ncc(-c2ccc3cc(-c4ccc5nc([C@@H]6CCCN6C(=O)[C@@H](NC(=O)OC)C(C)C)[nH]c5c4)ccc3c2)[nH]1)C(C)C` [compound 174]: the EC50 is below 1 nM.

For the molecule `COC(=O)N[C@H](C(=O)N1CCC[C@H]1c1ncc(-c2ccc3cc(-c4ccc5nc([C@@H]6CCCN6C(=O)[C@@H](NC(=O)OC)[C@@H](C)O)[nH]c5c4)ccc3c2)[nH]1)[C@@H](C)O` [compound 175], the EC50 is below 1 nM.

As for `COC(=O)N[C@H](C(=O)N1CCC[C@H]1c1ncc(-c2ccc3cc(-c4ccc5nc([C@@H]6CCCN6C(=O)[C@@H](NC(=O)OC)[C@@H](C)OC)[nH]c5c4)ccc3c2)[nH]1)[C@@H](C)OC` [compound 176], the EC50 was below 1 nM.

As to `COC(=O)N[C@H](C(=O)N1CCC[C@H]1c1ncc(-c2ccc3cc(-c4ccc5nc([C@@H]6CCCN6C(=O)[C@@H](c6ccccc6)N(C)C)[nH]c5c4)ccc3c2)[nH]1)C(C)C` [compound 177], the EC50 was below 1 nM.

As for `COC(=O)N[C@H](C(=O)N1CCC[C@H]1c1nc2ccc(-c3ccc4cc(-c5cnc([C@@H]6CCCN6C(=O)[C@@H](c6ccccc6)N6CCCC6)[nH]5)ccc4c3)cc2[nH]1)C(C)C` [compound 178], the EC50 is below 1 nM.

For `COC(=O)N[C@H](C(=O)N1CCC[C@H]1c1nc2ccc(-c3ccc4cc(-c5cnc([C@@H]6CCCN6C(=O)[C@H](NC(=O)OC)c6ccccc6)[nH]5)ccc4c3)cc2[nH]1)C(C)C` [compound 179], the EC50 was below 1 nM.

`COC(=O)N[C@H](C(=O)N1CCC[C@H]1c1ncc(-c2ccc3cc(-c4ccc5nc([C@@H]6CCCN6C(=O)[C@@H](c6ccccc6)N6CCCC6)[nH]c5c4)ccc3c2)[nH]1)C(C)C` [compound 180]: the EC50 was below 1 nM.

As to `COC(=O)N[C@H](C(=O)N1CCC[C@H]1c1ncc(-c2ccc3cc(-c4ccc5nc([C@@H]6CCCN6C(=O)[C@H](NC(=O)OC)c6ccccc6)[nH]c5c4)ccc3c2)[nH]1)C(C)C` [compound 181], the EC50 was below 1 nM.

For `COC(=O)N[C@H](C(=O)N1CCC[C@H]1c1nc2ccc(-c3ccc4cc(-c5cnc([C@@H]6CCCN6C(=O)[C@@H](c6ccccc6)N(C)C)[nH]5)ccc4c3)cc2[nH]1)C(C)C` [compound 182], the EC50 was below 1 nM.

With `COC(=O)N[C@H](C(=O)N1CCC[C@H]1c1nc2ccc(-c3ccc4cc(-c5cnc([C@@H]6CCCN6C(=O)[C@H](NC(=O)N6CC[C@H](O)C6)c6ccccc6)[nH]5)ccc4c3)cc2[nH]1)C(C)C` [compound 183], the EC50 is below 1 nM.

In the case of `COC(=O)N[C@H](C(=O)N1CCC[C@H]1c1ncc(-c2ccc3cc(-c4ccc5nc([C@@H]6CCCN6C(=O)[C@H](NC(=O)N6CC[C@H](O)C6)c6ccccc6)[nH]c5c4)ccc3c2)[nH]1)C(C)C` [compound 185], the EC50 is below 1 nM.

For `CNC(=O)N[C@@H](C(=O)N1CCC[C@H]1c1ncc(-c2ccc3cc(-c4ccc5nc([C@@H]6CCCN6C(=O)[C@@H](NC(=O)OC)C(C)C)[nH]c5c4)ccc3c2)[nH]1)c1ccccc1` [compound 186], the EC50 is below 1 nM.

As for `COC(=O)N[C@H](C(=O)N1CCC[C@H]1c1ncc(-c2cnc3cc(-c4ccc5nc([C@@H]6CCCN6C(=O)[C@@H](NC(=O)OC)C(C)C)[nH]c5c4)ccc3c2)[nH]1)C(C)C` [compound 187], the EC50 is below 1 nM.

Turning to `COC(=O)N[C@H](C(=O)N1CCC[C@H]1c1ncc(-c2cnc3cc(-c4ccc5nc([C@@H]6CCCN6C(=O)[C@H](NC(=O)OC)c6ccccc6)[nH]c5c4)ccc3c2)[nH]1)C(C)C` [compound 188], the EC50 lay within 1 to 9.9 nM.

`COC(=O)N[C@H](C(=O)N1CCC[C@H]1c1ncc(-c2ccc3cc(-c4ccc5nc([C@@H]6CCCN6C(=O)[C@@H](NC(=O)OC)C6CCOCC6)[nH]c5c4)ccc3c2)[nH]1)C(C)C` [compound 189]: the EC50 was below 1 nM.

For `COC(=O)N[C@H](C(=O)N1CCC[C@H]1c1nc2ccc(-c3ccc4cc(-c5cnc([C@@H]6CCCN6C(=O)[C@@H](NC(=O)OC)C6CCOCC6)[nH]5)ccc4c3)cc2[nH]1)C(C)C` [compound 190], the EC50 is below 1 nM.

As to `COC(=O)N[C@H](C(=O)N1CCC[C@H]1c1nc2ccc(-c3ccc4cc(-c5cnc([C@@H]6CCCN6C(=O)[C@@H](NC(=O)OC)C6CCOCC6)[nH]5)cnc4c3)cc2[nH]1)C(C)C` [compound 191], the EC50 is below 1 nM.

In the case of `COC(=O)N[C@H](C(=O)N1CCC[C@H]1c1ncc(-c2cnc3cc(-c4ccc5nc([C@@H]6CCCN6C(=O)[C@@H](NC(=O)OC)C6CCOCC6)[nH]c5c4)ccc3c2)[nH]1)C(C)C` [compound 192], the EC50 is below 1 nM.

Consider `COC(=O)N[C@H](C(=O)N1CCC[C@H]1c1ncc(-c2ccc3nc(-c4ccc5nc([C@@H]6CCCN6C(=O)[C@@H](NC(=O)OC)C(C)C)[nH]c5c4)ccc3c2)[nH]1)C(C)C` [compound 193], for which the EC50 is below 1 nM.

For `COC(=O)N[C@H](C(=O)N1CCC[C@H]1c1nc2ccc(-c3ccc4cc(-c5cnc([C@@H]6CCCN6C(=O)[C@@H](NC(=O)OC)C6CCOCC6)[nH]5)ccc4n3)cc2[nH]1)C(C)C` [compound 194], the EC50 is below 1 nM.

Regarding `COC(=O)N[C@H](C(=O)N1CCC[C@H]1c1nc2ccc(-c3ccc4cc(-c5cnc([C@@H]6CCCN6C(=O)[C@H](NC(=O)OC)c6ccccc6)[nH]5)cnc4c3)cc2[nH]1)C(C)C` [compound 195], the EC50 was below 1 nM.

For `COC(=O)N[C@H](C(=O)N1CCC[C@H]1c1nc2ccc(-c3ccc4cc(-c5cnc([C@@H]6CCCN6C(=O)[C@H](NC(=O)OC)c6ccccc6)[nH]5)ccc4n3)cc2[nH]1)C(C)C` [compound 196], the EC50 was below 1 nM.

Turning to `COC(=O)N[C@H](C(=O)N1CCC[C@H]1c1ncc(-c2ccc3nc(-c4ccc5nc([C@@H]6CCCN6C(=O)[C@H](NC(=O)OC)c6ccccc6)[nH]c5c4)ccc3c2)[nH]1)C(C)C` [compound 197], the EC50 was below 1 nM.

Turning to `COC(=O)N[C@H](C(=O)N1CCC[C@H]1c1ncc(-c2ccc3cc(-c4ccc5nc([C@@H]6CCCN6C(=O)[C@@H](NC(=O)OC)C(C)C)[nH]c5n4)ccc3c2)[nH]1)C(C)C` [compound 198], the EC50 was below 1 nM.

As for `COC(=O)N[C@H](C(=O)N1CCC[C@H]1c1ncc(-c2ccc3cc(-c4ccc5nc([C@@H]6CCCN6C(=O)[C@H](NC(=O)OC)c6ccccc6)[nH]c5n4)ccc3c2)[nH]1)C(C)C` [compound 199], the EC50 was below 1 nM.

With `COC(=O)N[C@H](C(=O)N1CCC[C@H]1c1nc2ccc(-c3ccc4cc(-c5cnc([C@@H]6CCCN6C(=O)[C@H](NC(=O)OC)c6ccccc6)[nH]5)ccc4c3)nc2[nH]1)C(C)C` [compound 200], the EC50 is below 1 nM.

For the molecule `COC(=O)N[C@H](C(=O)N1CCC[C@H]1c1nc2ccc(-c3ccc4cc(-c5cnc([C@@H]6CCCN6C(=O)[C@@H](NC(=O)OC)C6CCOCC6)[nH]5)ccc4c3)nc2[nH]1)C(C)C` [compound 201], the EC50 was below 1 nM.

As to `COC(=O)N[C@H](C(=O)N1CCC[C@H]1c1ncc(-c2ccc3cc(-c4ccc5nc([C@@H]6CCCN6C(=O)[C@@H](NC(=O)OC)C6CCOCC6)[nH]c5n4)ccc3c2)[nH]1)C(C)C` [compound 202], the EC50 was below 1 nM.

For the molecule `COC(=O)N[C@H](C(=O)N1CCC[C@H]1c1ncc(-c2ccc3cc(-c4ccc5nc([C@@H]6CCCN6C(=O)[C@@H](NC(=O)OC)C6CCOCC6)[nH]c5c4)ccc3c2)[nH]1)C1CCOCC1` [compound 203], the EC50 is below 1 nM.

Consider `COC(=O)N[C@H](C(=O)N1CCC[C@H]1c1ncc(-c2ccc3cc(-c4ccc5nc([C@@H]6CCCN6C(=O)[C@@H](NC(=O)OC)C(C)C)[nH]c5c4)ncc3c2)[nH]1)C(C)C` [compound 204], for which the EC50 was below 1 nM.

`COC(=O)N[C@H](C(=O)N1CCC[C@H]1c1ncc(-c2ccc3cc(-c4ccc5nc([C@@H]6CCCN6C(=O)[C@@H](NC(=O)OC)C6CCOCC6)[nH]c5n4)ccc3c2)[nH]1)C1CCOCC1` [compound 205]: the EC50 is below 1 nM.

Take `COC(=O)N[C@H](C(=O)N1CCC[C@H]1c1ncc(-c2ccc3nc(-c4ccc5nc([C@@H]6CCCN6C(=O)[C@@H](NC(=O)OC)C6CCOCC6)[nH]c5c4)ccc3c2)[nH]1)C1CCOCC1` [compound 206]: the EC50 was in the range of 1 to 9.9 nM.

Take `COC(=O)N[C@H](C(=O)N1CCC[C@H]1c1ncc(-c2cccc3c(-c4ccc5nc([C@@H]6CCCN6C(=O)[C@@H](NC(=O)OC)C(C)C)[nH]c5c4)cccc23)[nH]1)C(C)C` [compound 207]: the EC50 was below 1 nM.

`COC(=O)N[C@H](C(=O)N1CCC[C@H]1c1nc2ccc(-c3cccc4c(-c5cnc([C@@H]6CCCN6C(=O)[C@H](NC(=O)OC)c6ccccc6)[nH]5)cccc34)cc2[nH]1)C(C)C` [compound 208]: the EC50 is below 1 nM.
